Columns and labels:
[1] = normal conditions (temperature 20° C. to 35° C., humidity 40% to 70%) till 6 months; cited from earlier work
[2] = Plasma curcumin concentration (AUC and Cmax) after administration to rats; type: in vivo
Description: The plasma curcumin concentration was measured by the following method using heparin plasma obtained by collecting about 0.2 mL of blood from the jugular vein of test animals (rats) without anesthesia at 0.25 hours, 0.5 hours, 1 hour, 2 hours, 4 hours, and/or 6 hours after start of administration.
To 20 μL of the collected plasma, 100 μL of 0.1 M acetate buffer (pH 5.0) and 10 μL of β-glucuronidase solution (about 68,000 units/mL) were added. The mixture was kept at 37° C. for 1 hour. Subsequently, 10 μL of 50% (v/v) methanol containing 20 ng/mL of Mepronil, an internal standard, and 0.5 mL of chloroform were added. The mixture was stirred with a vortex mixer for 1 minute and then mixed with an ultrasonic generator for 15 minutes to perform an extraction process. The extraction process liquid was separated into a chloroform layer and an aqueous layer by centrifugation (13,000×g, 5 min, room temperature). The separated aqueous layer was further subjected to an extraction process in which extraction was performed by adding chloroform in the same manner as described above. Next, the chloroform layer was collected and dried to solid by distilling the solvent off using a vacuum centrifugal concentrator, and 100 μL of 50% (v/v) methanol was added thereto, followed by centrifugation (13,000×g, 5 min, room temperature). The supernatant was then collected.
The plasma curcumin concentration was measured by analyzing 2 μL of the prepared supernatant using LC-MS/MS (available from Bruker). […]
The calibration curve used to quantitatively determine the curcumin content in the sample was obtained by performing measurement under the same conditions as described above using various standard solutions (curcumin concentration: 0.9 to 225 ng/mL) prepared by adding 10 μL of a 50% ethanol solution containing 20 ng/mL of Mepronil to 90 μL of a 50% (v/v) methanol solution (curcumin standard solution) containing 1.0, 2.0, 3.9, 7.8, 15.6, 31.3, 62.5, 125, or 250 ng/mL of curcumin.

Compound | Storage stability of sample stored in a container [1] | Cmax ([2]; rat, oral, plasma curcumin after β-glucuronidase treatment) [µg/mL] | AUC ([2]; rat, oral, plasma curcumin after β-glucuronidase treatment, 0 to 6 hrs) [µg·h/mL] | Cmax relative to Comparative Example 1 (value in parentheses) ([2]; ratio to commercial curcumin formulation (Comparative Example 1 = 1.0)) [times]
COc1cc(/C=C/C(=O)/C=C(O)/C=C/c2ccc(O)c(OC)c2)ccc1O [amorphous curcumin, curcumin] | generally stable | – | – | –
COc1cc(/C=C/C(=O)/C=C(O)/C=C/c2ccc(O)c(OC)c2)ccc1O [Comparative Example 2, curcumin] | – | 0.085 | 0.292 | 0.84
